# Measurements reported in patent publication US7553860B2, “Substituted gamma lactams as therapeutic agents” (Allergan, Inc., priority 2006, dated 2009).
# Legend:
# hDP/Gqs5 = target: T1, hDP/Gqs5 (Homo sapiens, UniProt Q13258); assay: FLIPR calcium signal, hDP; format: cell-based; conditions: HEK-293(EBNA) cells; read-out: Other Receptors (EC50 in nM) hDP
# T1 construct: expressed in transfected cells; host or cells: HEK-293(EBNA)
# T1 sequence (Q13258 1-359): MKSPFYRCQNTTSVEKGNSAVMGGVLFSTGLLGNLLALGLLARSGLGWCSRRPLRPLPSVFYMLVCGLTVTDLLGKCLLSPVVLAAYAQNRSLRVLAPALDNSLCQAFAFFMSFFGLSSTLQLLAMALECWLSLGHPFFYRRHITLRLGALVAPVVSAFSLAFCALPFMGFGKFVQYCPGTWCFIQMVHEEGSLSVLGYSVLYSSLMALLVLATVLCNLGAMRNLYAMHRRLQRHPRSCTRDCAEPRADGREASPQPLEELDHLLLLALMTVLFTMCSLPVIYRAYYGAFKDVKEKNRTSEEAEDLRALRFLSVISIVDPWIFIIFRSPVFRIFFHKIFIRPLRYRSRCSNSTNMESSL
# Experimental: (§1) HEK-293(EBNA) cells, stably expressing one type or subtype of recombinant human prostaglandin receptors (prostaglandin receptors expressed: hDP/Gqs5; hEP1; hEP2/Gqs5; hEP3A/Gqi5; hEP4/Gqs5; hFP; hIP; hTP), are cultured in 100 mm culture dishes in high-glucose DMEM medium containing 10% fetal bovine serum, 2 mM I-glutamine, 250 μg/ml geneticin (G418) and 200 μg/ml hygromycin B as selection markers, and 100 units/ml penicillin G, 100 μg/ml streptomycin and 0.25 μg/ml amphotericin B.
# (§2) Cells are seeded at a density of 5×10^4 cells per well in Biocoat® Poly-D-lysine-coated black-wall, clear-bottom 96-well plates (Becton-Dickinson) and allowed to attach overnight in an incubator at 37° C. Cells are then washed two times with HBSS-HEPES buffer (Hanks Balanced Salt Solution without bicarbonate and phenol red, 20 mM HEPES, pH 7.4) using a Denley Cellwash plate washer (Labsystems). […]
# (§3) Cells are excited with an Argon laser at 488 nm, and emission is measured through a 510-570 nm bandwidth emission filter (FLIPR™, Molecular Devices, Sunnyvale, Calif.). […] The peak increase in fluorescence intensity is recorded for each well. […] The peak fluorescence change in each drug-containing well is then expressed relative to the controls. […]
# hEP3A/Gqi5 = target: T2, hEP3A/Gqi5 (Homo sapiens, UniProt P43115); assay: FLIPR calcium signal, hEP3A; format: cell-based; conditions: HEK-293(EBNA) cells; read-out: Other Receptors (EC50 in nM) hEP3A
# T2 construct: expressed in transfected cells; host or cells: HEK-293(EBNA)
# T2 sequence (P43115 1-390): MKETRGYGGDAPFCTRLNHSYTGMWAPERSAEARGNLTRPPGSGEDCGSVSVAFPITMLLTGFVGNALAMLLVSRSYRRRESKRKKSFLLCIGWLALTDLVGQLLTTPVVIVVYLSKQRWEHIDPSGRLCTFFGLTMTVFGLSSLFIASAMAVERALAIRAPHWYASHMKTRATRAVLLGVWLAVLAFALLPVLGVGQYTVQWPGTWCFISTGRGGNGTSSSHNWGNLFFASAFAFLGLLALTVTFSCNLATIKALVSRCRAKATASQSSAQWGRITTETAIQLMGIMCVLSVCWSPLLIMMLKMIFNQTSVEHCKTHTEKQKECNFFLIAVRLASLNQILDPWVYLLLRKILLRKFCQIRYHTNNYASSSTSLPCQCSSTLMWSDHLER
# Experimental: as §1, §2, §3
# hEP2/Gqs5 = target: T3, hEP2/Gqs5 (Homo sapiens, UniProt P43116); assay: EP2 FLIPR calcium signal; format: cell-based; conditions: HEK-293(EBNA) cells
# T3 construct: expressed in transfected cells; host or cells: HEK-293(EBNA)
# T3 sequence (P43116 whole entry): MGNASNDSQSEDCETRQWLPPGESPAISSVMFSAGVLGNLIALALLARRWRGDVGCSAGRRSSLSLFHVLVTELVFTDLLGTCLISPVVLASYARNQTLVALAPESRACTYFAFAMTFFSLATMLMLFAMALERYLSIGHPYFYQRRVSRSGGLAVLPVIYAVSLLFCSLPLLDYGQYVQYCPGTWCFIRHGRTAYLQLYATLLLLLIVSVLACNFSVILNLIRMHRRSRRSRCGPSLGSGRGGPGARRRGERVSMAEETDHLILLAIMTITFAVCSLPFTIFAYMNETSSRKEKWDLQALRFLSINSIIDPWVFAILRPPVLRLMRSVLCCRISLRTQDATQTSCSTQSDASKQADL
# Experimental: as §1, §2, §3
# EP2 [1] = target: T4, EP2 (Homo sapiens, UniProt P43116); assay: EP2 cAMP; format: cell-based
# T4 sequence (P43116 whole entry): as above
# EP2 [2] = target: T4, EP2; assay: EP2 competition binding ([3H]PGE2), Ki; design: expressed in transfected cells; host or cells: HEK 293; conditions: HEK 293 cells stably expressing human EP2, [3H]PGE2
# Experimental: Competition binding experiments are performed in a medium containing Hank's balanced salt solution, Hepes 20 mM, pH 7.3, membranes (˜60 μg protein) or 2×10^5 cells from HEK 293 cells stably expressing human EP2 receptors, [^3H]PGE2 (10 nM) and various concentrations of test compounds in a total volume of 300 μl. Reaction mixtures are incubated at 23° C. for 60 min, and are filtered over Whatman GF/B filters under vacuum. Filters are washed three times with 5 ml ice-cold buffer containing 50 mM Tris/HCl (pH 7.3). Non-specific binding is estimated in the presence of excess unlabeled PGE2 (10 μM). Binding data fitted to the binding model for a single class of binding sites, using nonlinear regression analysis. IC50 values thus obtained are converted to Ki using the equation of Ki=(IC50/(1+[L]/KD) where [L] represents PGE2 concentration (10 nM) and KD the dissociation constant for [^3H]PGE2 at human EP2 receptors (40 nM). […]
# The cell homogenate is centrifuged at 19000 r.p.m. for 20 min at 4° C. using a Beckman Ti-60 rotor. The resultant pellet is resuspended in TME buffer to give a final 1 mg/ml protein concentration, as determined by Biorad assay. […]
# [^3H-] […] 17-phenyl PGF2[…] and non-specific binding determined with 10^−5M of unlabeled PGE2, or 17-phenyl PGF2α, according to receptor subtype studied.
smiles,measurement,setting,value
CCCCCC(O)c1ccc(N2C(=O)OC[C@@H]2COCc2ccc(C(=O)O)s2)cc1 (stereo partly drawn) [5-{(S)-3-[4-(1-Hydroxy-hexyl)-phenyl]-2-oxo-oxazolidin-4-ylmethoxymethyl}-thiophene-2-carboxylic acid],EC50,hDP/Gqs5,> 10000 nM
same,EC50,hEP3A/Gqi5,995 nM
same,EC50,hEP2/Gqs5,817 nM
same,EC50,EP2 [1],14 nM
same,Ki,EP2 [2],2710 nM
CCCCCC(F)c1ccc(N2C(=O)OC[C@@H]2COCc2ccc(C(=O)O)s2)cc1 (stereo partly drawn) [5-{(S)-3-[4-(1-Fluoro-hexyl)-phenyl]-2-oxo-oxazolidin-4-ylmethoxymethyl}-thiophene-2-carboxylic acid],EC50,EP2 [1],13 nM
same,Ki,EP2 [2],1040 nM
